# According to patent US20150072416A1, “METABOLITE FOR IMPROVING PRODUCTION, MAINTENANCE AND PROLIFERATION OF PLURIPOTENT STEM CELLS, COMPOSITION COMPRISING THE SAME, AND METHOD OF CULTURING PLURIPOTENT STEM CELL USING THE SAME” (KOREA RESEARCH INSTITUTE OF BIOSCIENCE AND BIOTENOLOGY, priority 2012, published 2015):
# What was measured:
# [1] = test system: H9 human embryonic stem cells; assay: BrdU incorporation assay in human embryonic stem cells in mTeSR1; assay type: cell-based
# Procedure: For 5-bromo)-2-deoxyuridine (BrdU; BD Pharmingen, San Diego) incorporation assays, human embryonic stem cells were cultured on Matrigel-coated 4-well LabTec chamber slides for 4 days.
# Specifically, for BrdU incorporation, cells were incubated in the presence of 30 μM BrdU at 37° C. for 1 hour. After washing with PBS, the cells were fixed with 4% paraformaldehyde for 15 minutes and reacted in 1N HCl at room temperature for 15 minutes. The sample was washed and reacted with 0.1 M sodium tetraborate for 15 minutes. After washing, the cells were reacted with anti-BrdU antibody in 3% BSA-containing PBS for 1 hour, and then reacted with FITC-conjugated secondary antibody for 30 minutes.
# In order to verify the effect of nicotinamide on the proliferation of pluripotent stem cells, a BrdU incorporation assay was performed. Nicotinamide was added to mTeSR1 (CDM) at various concentrations, and the effects thereof were examined.
# [2] = test system: human fibroblasts transfected with reprogramming factor OSKM; assay: Senescence-associated beta-galactosidase staining and senescence-associated DNA damage staining during reprogramming; assay type: cell-based; conditions: for decrease in number of senescent cells: 10 mM
# Procedure: On day 26 of induction of reprogramming, the cells were fixed with a fixation solution at room temperature for 10 minutes, and then stained with a β-galactosidase solution at room temperature for 15 minutes. Next, the DNA was stained with DAPI (4′,6-diamidino-2-phenylindole) for 5 minutes, and then the cells were imaged by phase-contrast and fluorescence microscopy. The number of cells having senescence (green) damaged DNA (blue combined points) was counted and quantified relative to the number of normal cells.
compound,measurement,setting,value
NC(=O)c1cccnc1 [nicotinamide],increase in BrdU incorporation,"[1]; 0.1 mM in mTeSR1, compared to cells cultured in mTeSR1",1.6 times
same,increase in BrdU incorporation,"[1]; 1 mM in mTeSR1, compared to cells cultured in mTeSR1",1.2 times
same,decrease in cellular senescence-associated DNA damage,"[2]; 1 mM, compared to control group",83.0±0.5%
same,decrease in ratio of cells stained with senescence-associated beta-galactosidase,"[2]; 1 mM, day 19, compared to untreated group",88.1±1.4%
same,decrease in ratio of cells stained with senescence-associated beta-galactosidase,"[2]; 1 mM, day 26, compared to untreated group",76.9±2.5%
same,decrease in number of senescent cells,"[2]; day 19, compared to control group",76.1±1.4%
same,decrease in number of senescent cells,"[2]; day 21, compared to control group",30.8±9.0%
